Publication PMC10385865, “Synthesis and Anticancer Activity of Novel Dual Inhibitors of Human Protein Kinases CK2 and PIM-1” (Pharmaceutics, 2023)
Read-outs that look alike come from different tables or passages of the source.

What was measured:
[1] = molecular target: T1, human CK2 holoenzyme (CK2α2β2) (Homo sapiens, UniProt P68400); experiment: P81 filter isotopic (radiometric) kinase assay, CK2 holoenzyme; type: biochemical; conditions: substrate peptide […], Ki from IC50 by Cheng–Prusoff
T1 construct: made in house
T1 sequence (P68400 whole entry): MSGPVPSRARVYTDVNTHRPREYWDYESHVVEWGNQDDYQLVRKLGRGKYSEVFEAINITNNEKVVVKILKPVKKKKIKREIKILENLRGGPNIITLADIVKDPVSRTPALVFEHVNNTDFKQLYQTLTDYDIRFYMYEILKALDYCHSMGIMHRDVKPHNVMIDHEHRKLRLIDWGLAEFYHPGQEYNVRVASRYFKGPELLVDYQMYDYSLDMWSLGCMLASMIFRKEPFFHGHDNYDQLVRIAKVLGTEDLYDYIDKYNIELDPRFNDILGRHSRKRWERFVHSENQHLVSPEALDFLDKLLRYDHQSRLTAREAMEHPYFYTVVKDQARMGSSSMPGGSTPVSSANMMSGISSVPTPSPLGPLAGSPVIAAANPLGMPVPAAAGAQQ
T1 sequence (P67870 whole entry partner): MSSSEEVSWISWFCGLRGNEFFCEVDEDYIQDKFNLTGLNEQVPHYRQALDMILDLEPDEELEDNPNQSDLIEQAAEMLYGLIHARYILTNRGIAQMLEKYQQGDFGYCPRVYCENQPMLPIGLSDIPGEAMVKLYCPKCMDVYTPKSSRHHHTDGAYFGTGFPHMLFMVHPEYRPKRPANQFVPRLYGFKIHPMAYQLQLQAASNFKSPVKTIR
Experimental: (§1) The obtained compounds were tested for their inhibitory activity toward human CK2α, human CK2 holoenzyme, and PIM-1 using a P81 filter isotopic assay as described previously. […] The experimental data were fitted to the sigmoidal dose–response equation, i.e., (variable slope) Y = Bottom + (Top-Bottom)/(1 + 10^((LogIC50−X)∗HillSlope), in GraphPad Prism (Prism 9, v. 9.0.1).
(§2) Inhibition of the human CK2 catalytic subunit (CK2α), CK2 holoenzyme (CK2α2β2), and PIM-1 by the newly obtained compounds was evaluated using a radiometric assay (Table 1, Figure S2). The synthetic peptide […] was used as the substrate of CK2, and peptide […] was used as the substrate of PIM-1. The values of the inhibition constant (Ki) were calculated using the Cheng–Prusoff equation: Ki = IC50/(1 + [S]/Km).

MCF-7 cells = experiment: Cell cycle progression by flow cytometry (PI), MCF-7; type: cell-based, human; conditions: MCF-7, 48 h
Experimental: (§3) MCF-7, CCRF-CEM, and K-562 cells were cultured in 6-well plates and treated with the tested compounds for 48 h. After exposure to the compounds, the cells were collected and washed with cold PBS and fixed at −20 °C in 70% ethanol for at least 24 h. Subsequently, cells were washed in PBS and stained with 50 μg/mL PI (propidium iodide) and 100 μg/mL RNase solution in PBS supplemented with 0.1% v/v Triton X-100 for 30 min in the dark at RT. Cellular DNA content was determined by flow cytometry employing a BD FACSCanto II flow cytometer (BD Biosciences, San Jose, CA, USA). The obtained DNA histograms were analyzed using MacCycle software (Phoenix Flow Systems, San Diego, CA, USA) for evaluation of the distribution of the cells in different phases of the cell cycle.
(§4) Since CK2 controls cell cycle progression and, consequently, its inhibition can affect the distribution of cells in the individual phases of the cell cycle, we tested the cell cycle progression in CCRF-CEM, K-562, and MCF-7 cells after treatment with 4 and rac-6. Representative plots DNA histograms with the calculations of cell percentages in each phase of the cell cycle are depicted in Figure 7. […] Accumulation of cells in sub-G1 indicates DNA degradation, as often seen in apoptotic cells, confirming the results obtained with annexin V and PI staining.

CCRF-CEM cells = experiment: Cell cycle progression by flow cytometry (PI), CCRF-CEM; type: cell-based, human; conditions: 48 h
Experimental: as §3, §4

PIM-1 = molecular target: T2, PIM-1 (Homo sapiens, UniProt P11309); experiment: P81 filter isotopic (radiometric) kinase assay, PIM-1; type: biochemical; conditions: substrate peptide […], Ki from IC50 by Cheng–Prusoff
T2 construct: made in house
T2 sequence (P11309 whole entry): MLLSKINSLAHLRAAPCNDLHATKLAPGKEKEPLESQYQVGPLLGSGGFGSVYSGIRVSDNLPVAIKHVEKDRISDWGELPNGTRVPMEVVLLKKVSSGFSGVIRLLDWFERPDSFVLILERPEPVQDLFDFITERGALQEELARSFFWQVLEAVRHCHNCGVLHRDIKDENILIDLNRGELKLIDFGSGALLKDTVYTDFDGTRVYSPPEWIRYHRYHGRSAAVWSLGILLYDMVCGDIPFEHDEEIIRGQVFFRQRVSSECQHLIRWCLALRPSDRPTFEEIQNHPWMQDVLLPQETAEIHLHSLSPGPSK
Experimental: as §1, §2

K-562 cells = experiment: Acridine orange staining, microscopy and fluorescence intensity assay (autophagy); type: cell-based, human; conditions: for induction of autophagy (in words): BCR-ABL-positive CML cell line K-562, 48 h; for red fluorescence (red-stained lysosomes), AO, % of the control: K-562, 48 h, 4 at both concentrations, rac-6 at 15 µM, not statistically significant
Experimental: K-562 cells were seeded in 6-well plates at 2.5 × 10^5/mL and subjected to the tested compounds. After 48 h of incubation, cells were centrifugated at 200× g at 4 °C for 5 min, subsequently suspended in PBS containing 2 µg/mL AO and Hoechst 33342, and incubated at 37 °C for 20 min in the dark. Subsequently, cells were centrifugated at 200× g at 4 °C for 5 min. Then, 5 µL of the sample was mounted on a glass slide and covered with a coverslip and examined under a Nikon ECLIPSE Y-TV55 fluorescent microscope.
K-562 cells were seeded in 6-well plates at 2.5 × 10^5/mL and subjected to the tested compounds. After 48 h of incubation, cells were centrifugated at 200× g at 4 °C for 5 min, subsequently suspended in PBS containing 2 µg/mL AO and Hoechst 33342, and incubated at 37 °C for 20 min in the dark. Subsequently, cells were centrifugated at 200× g at 4 °C for 5 min, and 150 µL of the sample was measured on dark plates (Sarstedt). The fluorescence intensity of AO at Ex. 502 nm/Em. 520–524 nm (aggregated or DNA complexed form), Ex. 457 nm/Em. 630–644 nm (aggregated or RNA complexed form), Ex. 540 nm/Em. 640–660 nm (red-stained lysosomes), and Ex. 488 nm/Em. 540–550 nm (yellowish stained lysosomes) and that of Hoechst (nuclei, Ex. 361 nm/Em. 497 nm) in K-562 cells was measured with a Synergy H4 Hybrid Multi-Mode Microplate Reader (BioTek Instruments, Inc., Winooski, VT, USA). The data were normalized to the intensity of Hoechst (nuclei, Ex. 361 nm/Em. 497 nm) in comparison to control cells serving as the reference point, showing 100%.
In order to conclude the mechanism of death of K-562 cells treated with the tested active agents, microscopic observations and a fluorescence intensity assay were performed after staining the cells with an acridine orange (AO). The employed dye is a cell-permeable fluorophore that can be protonated and trapped in acidic vesicular organelles (AVOs). Its metachromatic shift to red fluorescence is concentration-dependent, and therefore, acridine orange fluoresces red in AVOs, such as autolysosomes, can be detected quantitatively. In addition, OA has the ability to intercalate between the nitrogenous bases of the nucleic acids present in cells and their labeling. DNA or RNA is digested during the autophagy process, and the resulting damage makes it easier to bind with OA molecules.
After 48 h of treatment with 4 and rac-6, K-562 cells, were subjected to staining with Hoechst (nuclei staining) and AO, followed by fluorescent microscopy and a fluorescence intensity measurement. […] Since the obtained microscopic data were inconclusive, we additionally measured fluorescence intensity of AO at four different wavelengths, i.e., Ex. 502 nm/Em. 520–524 nm (aggregated or DNA complexed form), Ex. 457 nm/Em. 630–644 nm (aggregated or RNA complexed form), Ex. 540 nm/Em. 640–660 nm (red-stained lysosomes), and Ex. 488 nm/Em. 540–550 nm (yellowish stained lysosomes) (Figure 6b).

MCF-7 (breast carcinoma) = experiment: MTT-based viability assay, MCF-7; type: cell-based, human; conditions: for IC50: Homo sapiens, read-out: IC50 MCF-7
Experimental: After incubation with the tested compounds, an MTT test was performed as described previously. Optical densities were measured at 570 nm using a BioTek microplate reader (BioTek Instruments, Inc., Winooski, VT, USA). All measurements were carried out in a minimum of three biological replicates.
. The IC50 values describing the half-maximal effective concentration of each tested compound were calculated and are summarized in Table 2. […].

Structure (SMILES) | Ki [1] [µM] | cell cycle arrest (phase, in words) (MCF-7 cells) | leukemia cells accumulated in G1 phase (maximum) (CCRF-CEM cells; 10 µM) [%] | cell cycle arrest (phase, in words) (CCRF-CEM cells) | Ki (PIM-1) [µM] | induction of autophagy (in words) (K-562 cells) | red fluorescence (in words) (K-562 cells; K-562, 10 µM, 48 h) | yellowish-stained lysosomes, AO fluorescence, % of the control (K-562 cells; K-562, 15 µM, 48 h, Ex. 488 nm/Em. 540–550 nm, normalized to Hoechst) | red fluorescence (red-stained lysosomes), AO, % of the control (K-562 cells) | IC50 (MCF-7 (breast carcinoma); MCF7, MTT, 48 h) [µM] | SI (selectivity index) MCF-7 (MCF-7 (breast carcinoma); IC50 Vero/IC50 cancer cells) | IC50 (MCF-7 (breast carcinoma); MCF7, 48 h) [µM]
OC(CNc1nc2c(Br)c(Br)c(Br)c(Br)c2[nH]1)C(F)(F)F (racemic) [rac-6, 1,1,1-Trifluoro-3-[(4,5,6,7-tetrabromo-1H-benzimidazol-2-yl)amino]propan-2-ol] | 0.112 | G1-phase arrest | 49 | G1-phase arrest | 0.067 | able to induce autophagy | reduced | 324 % of the control | up to 148 % of the control | 9.66 ± 0.31 | 2.11 | 
CN(C)c1nc2c(Br)c(Br)c(Br)c(Br)c2[nH]1 [Compound 4, 4,5,6,7-Tetrabromo-N,N-dimethyl-1H-benzimidazol-2-amine, reference compound] |  | S-phase arrest |  | S-phase arrest | 0.052 | able to induce autophagy |  |  | up to 148 % of the control |  |  | 14.7 ± 0.27
